Laboratory results published in patent US20030220252A1, “Method for treating a patient with neoplasia by treatment with a gonadotropin releasing hormone analog” (priority 1998, published 2003).
Values belong to the compound of their own block, whether it stands above or below them.

How the values were obtained:
cGMP-PDE = cGMP-PDE inhibition assay, enzyme purified from HT-29 tumor cells; format: biochemical, human; details: for % Inhibition at 100 μM (cGMP PDE): test compounds
[1] = test system: HT-29 human colon carcinoma cell line; test: Growth inhibition of HT-29 cells (SRB assay; trypan blue count); format: cell-based
COX = COX inhibition; format: biochemical; details: 100 μM
[2] = test system: PDE peak B (novel cGMP-specific PDE); test: cGMP hydrolysis by PDE peak B isolated from SW-480 cells; format: biochemical, human
PDE peak A (PDE5) = biological target: T1, PDE peak A (PDE5) (Homo sapiens, UniProt O76074); test: cGMP hydrolysis by PDE peak A isolated from SW-480 cells; format: biochemical
T1 construct: SW-480 cells are collected and homogenized; endogenous in cells; host or cells: SW-480 human colon adenocarcinoma cells; supernatant of homogenate fractionated on DEAE-Trisacryl M

[3] = test system: premalignant lesions in mouse mammary gland organ culture; test: Mammary gland organ culture model; format: cell-based
Protocol: For example, female BALB/c mice can be treated with a combination of estradiol and progesterone daily, in order to prime the glands to be responsive to hormones in vitro. The animals are sacrificed and thoracic mammary glands are excised aseptically and incubated for ten days in growth media supplemented with insulin, prolactin, hydrocortisone, and aldosterone. DMBA (7,12-dimethylbenz(a)anthracene) is added to medium to induce the formation of premalignant lesions. Fully developed glands are then deprived of prolactin, hydrocortisone, and aldosterone, resulting in the regression of the glands but not the premalignant lesions.
The test compound is dissolved in DMSO and added to the culture media for the duration of the culture period. At the end of the culture period, the glands are fixed in 10% formalin, stained with alum carmine, and mounted on glass slides. The extent of the area occupied by the mammary lesions can be quantitated by projecting an image of the gland onto a digitation pad. The area covered by the gland is traced on the pad and considered as 100% of the area. The space covered by each of the unregressed structures is also outlined on the digitization pad and quantitated by the computer.
The incidence of forming mammary lesions is the ratio of the glands with mammary lesions to […]. The incidence of mammary lesions in test compound treated glands is compared with that of the untreated glands.
Mammary gland organ culture experiments were performed as previously described (Mehta and Moon, Cancer Research, 46: 5832-5835, 1986). […] The data support the hypothesis that cyclooxygenase inhibition is not necessary for the anti-neoplastic properties of desired compounds.

[4] = Side effects of exisulind on administration; format: in vivo; details: reversible
Description: This effect is reversible, and liver enzymes return to normal levels when the administered dose of exisulind returns to the traditionally recommended level or when treatment is discontinued. The most serious side effects of GnRH analogs, on the other hand, are related to decreases serum levels of estrogen and testosterone.

HT-29 cells = test: Apoptosis and necrosis by morphology (acridine orange/ethidium bromide) in HT-29 cells; format: cell-based, human; details: for apoptotic and necrotic cell death, in words: HT-29 cells treated for six days
Protocol: Treatment of cells with test compounds involves either pre- or post-confluent cultures and treatment for two to seven days at various concentrations of the compound in question. Apoptotic cells are measured by combining both the attached and “floating” compartments of the cultures. The protocol for treating tumor cell cultures with sulindac and related compounds to obtain a significant amount of apoptosis has been described in the literature. (See, Piazza, G. A., et al., Cancer Research, 55:3110-16, 1995, which is incorporated herein by reference). The novel features include collecting both floating and attached cells, identification of the optimal treatment times and dose range for observing apoptosis, and identification of optimal cell culture conditions.
Following treatment with a test compound, cultures can be assayed for apoptosis and necrosis by fluorescent microscopy following labeling with acridine orange and ethidium bromide. The method for measuring apoptotic cell number has previously been described by Duke & Cohen, “Morphological And Biochemical Assays Of Apoptosis,” Current Protocols In Immunology, Coligan et al., eds., 3.17.1-3.17.16 (1992, which is incorporated herein by reference).
For example, floating and attached cells can be collected, and aliquots of cells can be centrifuged. The cell pellet can then be resuspended in media and a dye mixture containing acridine orange and ethidium bromide. The mixture can then be examined microscopically for morphological features of apoptosis.
Reference compounds and test compounds were analyzed for their cGMP-specific PDE inhibitory activity in accordance with the protocols for the assay, supra. […] Apoptotic and necrotic cell death was determined as previously described (Duke and Cohen, In: Current Protocols in Immunology, 3.17.1-3.17.16, New York, John Wiley and Sons, 1992). […]
The apoptosis inducing activity for a series of phosphodiesterase inhibitors was determined. […] Apoptosis and necrosis were determined morphologically after acridine orange and ethidium bromide labeling in accordance with the assay described, supra.

[5] = test system: cAMP levels in HT-29 cells; test: cAMP levels in HT-29 cells by radioimmunoassay; format: cell-based, human; details: HT-29 cells treated 30 minutes
Description: It has been observed that a compound which is useful in the practice of this invention (i.e., one that selectively induces apoptosis in neoplastic cells, but not substantially in normal cells) follows a time course consistent with cGMP-specific PDE inhibition. […] The intracellular targets of these drug actions are being studied further, but current data support the concept that the initial rise in cGMP content and the subsequent fall in cAMP content precede apoptosis in neoplastic cells exposed to test compounds useful in this invention. To determine the cyclic AMP content in cell extracts, radioimmunoassay techniques similar to those described above for cGMP are used.

[6] = test system: cGMP levels in HT-29 cells; test: cGMP levels in HT-29 cells by radioimmunoassay; format: cell-based, human; details: HT-29 cells treated 30 minutes

Structure (SMILES): CCN(CC)CCSC12CC(=O)OC1(C)/C(=C/c1ccc(S(C)(=O)=O)cc1)c1ccc(F)cc12 (racemic) [A, rac-threo-(E)-1-(N,N′-diethylaminoethanethio)-1-(butan-1′,4′-olido)-[3′,4′:1,2]-6-fluoro-2-methyl-3-(p-methylsulfonylbenzylidene)-indan]
% Inhibition at 100 μM (cGMP PDE) (cGMP-PDE): <25%
Growth inhibitory activity, % Inhibition at 100 μM ([1]; 100 μM single dose): 68%

Structure (SMILES): CC1=C(CC(=O)O)c2cc(F)ccc2/C1=C\c1ccc(Cl)cc1 [C, (Z)-5-Fluoro-2-methyl-1-(p-chlorobenzylidene)-3-acetic acid]
% Inhibition at 100 μM (cGMP PDE) (cGMP-PDE): <25%

Structure (SMILES): COc1cc(C=C2C(C)=C(CC(=O)O)c3cc(F)ccc32)cc(OC)c1OC [Compound B, (Z)-5-Fluoro-2-methyl-1-(3,4,5-trimethoxybenzylidene)-3-acetic acid]
COX inhibition, in words (COX): did not inhibit COX
% Inhibition at 100 μM (cGMP PDE) (cGMP-PDE): <25%

Structure (SMILES): O=C([O-])C1CCN(c2nc(NCc3ccc4c(c3)OCO4)c3cc(Cl)ccc3n2)CC1.[Na+] [Compound E4021]
inhibition / sensitivity of the new cGMP-PDE (peak B), in words [2]: relatively insensitive

inhibition of peak A (PDE5), in words (PDE peak A (PDE5)): competitively inhibit
Structure (SMILES): COc1cc(/C=C2/C(C)=C(CC(=O)NCc3ccccc3)c3cc(F)ccc32)cc(OC)c1OC [Compound E, (Z)-5-Fluoro-2-methyl-1-(3,4,5-trimethoxybenzylidene)-3-indenylacetamide, N-benzyl]
COX inhibition, in words (COX): did not inhibit COX
% Inhibition at 100 μM (cGMP PDE) (cGMP-PDE): 75%
inhibition / sensitivity of the new cGMP-PDE (peak B), in words [2]: competitively inhibit

inhibition of peak A (PDE5), in words (PDE peak A (PDE5)): inhibits both PDE5 and the new cGMP-PDE
Structure (SMILES): CC1=C(CC(=O)O)c2cc(F)ccc2/C1=C\c1ccc(S(C)(=O)=O)cc1 [Exisulind, (Z)-5-fluoro-2-methyl-1-[[4-(methylsulfonyl)phenyl]methylene]indene-3-yl acetic acid]
% Inhibition at 10 μM (cGMP PDE) (cGMP-PDE): 39%
inhibition of premalignant lesions in mammary gland organ culture, in words [3]: effectively inhibit the formation of premalignant lesions
effect at doses higher than the recommended therapeutic levels [4]: elevated levels of liver enzymes
apoptotic and necrotic cell death, in words (HT-29 cells): capable of causing apoptotic cell death without inducing necrosis
inhibition / sensitivity of the new cGMP-PDE (peak B), in words [2]: inhibits both PDE5 and the new cGMP-PDE

Structure (SMILES): CC1(C)C(=O)Nc2ccc(C3=NNC(=O)CC3)cc21 [Indolidan]
inhibition / sensitivity of the new cGMP-PDE (peak B), in words [2]: relatively insensitive

Structure (SMILES): COc1ccc(C2CNC(=O)C2)cc1OC1CCCC1 (stereo not drawn) [Rolipram]
effect on levels of cAMP, in words [5]: increased cAMP levels
inhibition / sensitivity of the new cGMP-PDE (peak B), in words [2]: relatively insensitive

Structure (SMILES): CCCc1nn(C)c2c(=O)[nH]c(-c3cc(S(=O)(=O)N4CCN(C)CC4)ccc3OCC)nc12 [Sildenafil]
inhibition of peak A (PDE5), in words (PDE peak A (PDE5)): inhibited activity of peak A
inhibition / sensitivity of the new cGMP-PDE (peak B), in words [2]: relatively insensitive

Structure (SMILES): CSc1ccc(/C=C2/C(C)=C(CC(=O)O)c3cc(F)ccc32)cc1 [Sulindac sulfide]
% Inhibition at 10 μM (cGMP PDE) (cGMP-PDE): 97%
inhibition of premalignant lesions in mammary gland organ culture, in words [3]: inactive
inhibition of peak A (PDE5), in words (PDE peak A (PDE5)): competitively inhibit
effect on levels of cAMP, in words [5]: unaffected
growth inhibition by counting viable cells after trypan blue staining, in words ([1]; 120 μM, time course): capable of inhibiting tumor cell growth
apoptosis by morphological determination, in words (HT-29 cells; 120 μM, time course): increase in apoptosis
apoptotic and necrotic cell death, in words (HT-29 cells): capable of causing apoptotic cell death without inducing necrosis
increase of the levels of cGMP [6]: greater than 50%
inhibition / sensitivity of the new cGMP-PDE (peak B), in words [2]: competitively inhibit

Structure (SMILES): CCOC(=O)C1=C[C@]2(CC)CCCN3CCc4c(n1c1ccccc41)[C@@H]32 [Vinpocetine]
inhibition / sensitivity of the new cGMP-PDE (peak B), in words [2]: relatively insensitive

Structure (SMILES): CCCOc1ccccc1-c1nc2nn[nH]c2c(=O)[nH]1 [Zaprinast]
inhibition / sensitivity of the new cGMP-PDE (peak B), in words [2]: relatively insensitive

Structure (SMILES): CC1=C(CC(=O)O)c2cc(F)ccc2/C1=C/c1ccc([S+](C)[O-])cc1 (stereo not drawn) [sulindac sulfoxide]
inhibition of premalignant lesions in mammary gland organ culture, in words [3]: effectively inhibit the formation of premalignant lesions
